Where two headings read alike, the source gives them in different places.
How the values were obtained:
MRC5 non-tumoral cells = assay: Cytotoxicity, alamarBlue assay, MRC5; assay type: cell-based, human; conditions: 72 h incubation, alamarBlue fluorescence, read-out: absolute EC50 MRC5
Procedure: Doxorubicin, suramin and miltefosine were used as control compounds.[ ^6b , ^9 ] After incubation with varied concentrations of the compounds for 72 h, cell viability was measured using either an alamarBlue™ assay (for MRC5, HeLa and T. brucei) or MTT assay (for L. major). Absolute EC50 values and selectivity indexes were then calculated from dose‐response curves (Table 2 and S14). […]
Cell culture reagents were purchased from Thermo Fisher Scientific (Waltham, MA, USA) and used as-is. The Dulbecco’s Minimal Essential Medium (DMEM) formulation contained either high glucose (4.5 g/L, catalogue number: 10569) or low glucose (1 g/L, catalogue number:
10567). RPMI-1640 was provided without sodium pyruvate and with L-glutamine (catalogue number: 11875). Phosphate Buffered Saline (PBS) contained NaCl (9 g/L), KH2PO4 (144 mg/L) and Na2HPO4-7.H2O (795 mg/L, catalogue number: 10010049). TrypLE Express™ was provided with EDTA (458 mg/L) and without Phenol Red (catalogue number: 12604021).
MRC-5 cells (human lung fibroblasts) were grown in monolayer (37 °C, 5 % CO2 and 100 % humidity) in DMEM medium (1 g/L glucose), supplemented with 10% heat-inactivated Fetal Bovine Serum (hiFBS), 2 mM L-glutamine, 100 U / mL penicillin and […]
streptomycin. […]
Cells were cultured according to ATCC recommendations and were used for the experiments while in the exponential growth phase. […]
Cytotoxicity was measured through the alamarBlue® assay (Thermo Fisher Scientific).[S6,S13] Briefly, 5×10^3 MRC-5 or HeLa cells were seeded in 96-wells plates (100 µL / well) in the presence of increasing concentrations of compound. After 72 hrs of incubation at 37 °C, 20 µL of alamarBlue® solution (110 ng / ml) was added to each well and cells were reincubated for 4 hrs at 37 °C. Then, 50 µL of 3 % SDS were added to each well. The plate was incubated at 37 °C for an extra hour and then analysed by fluorescence with an Infinite F200 plate reader (TECAN Austria, GmbH). The excitation wavelength was fixed at 550 nm and the emission wavelength at 590 nm. The results are expressed as the concentration of compound that reduces

[1] = tested on: Febr1T-K+ (T. brucei G-quadruplex); assay: FRET melting assay, T. brucei G4; assay type: binding; conditions: 200 nM DNA, PIPER and 3 not reliable (spectral overlap)
Procedure: With the library in hand, we began our investigation into G4 stabilization by conducting a Förster resonance energy transfer (FRET) melting assay to assess DNA stabilization using the procedure outlined by De Cian et. al. ^[13] […] The sequences examined (at 200 nM) were the human telomeric G4 in potassium buffer (F21T‐K^+, mixed parallel/hybrid G4) ^[14] and sodium buffer (F21T‐Na^+, antiparallel G4), ^[15] the c‐Myc promoter G‐quadruplex (FmycT‐K^+, parallel G4), ^[16] a polymorphic G4 found in T. brucei (FEBR1T‐K^+, a mixed G4 topology), ^[6b] and a hairpin duplex DNA sequence (F10T‐K^+). Together, these sequences represent targets for therapeutic intervention to treat parasitic infections, ^[6b] or cancer. ^[1b] The topology of each sequence was confirmed independently via circular dichroism (CD, Figure S1). […]
FRET melting assays were performed to assess ligand affinity for duplex and G-quadruplex
DNA. Briefly, oligonucleotides of interest were obtained labelled at the 5’ and 3’ ends with FAM (a fluorescence donor) and TAMRA (a fluorescence quencher), respectively. In the folded state, proximity of the donor and quencher result in no observed fluorescence from FAM, since energy is transferred non-radiatively to TAMRA by FRET. As the temperature is raised and the secondary structure denatures, the fluorophores move further apart and the fluorescence signal increases. From the resulting curve, the characteristic melting temperature (Tmax, also referred to as Tm) is defined as the temperature which corresponds to the maxima of the first derivative of the normalised fluorescence signal. The change in melting temperature (ΔTm) induced by the presence of a small molecule ligand provides an indication of the ligand’s ability to stabilise the DNA structure. FRET experiments were performed according to the […]
procedure reported by De Cian and co-workers[S3] on a Stratagene MX3005P. The method consisted of holding at 25 °C for 5 min, before heating at 1 °C/min to 96 °C in 1 °C increments, […]

[2] = tested on: telo23-K+ (DNA, G4) TAGGGTTAGGGTTAGGGTTAGGG; assay: UV-Vis titration; conditions: independent/equivalent sites, 10 µM ligand, DNA up to 30 µM, apparent
L. major = assay: Leishmaniacidal activity, MTT assay; assay type: cell-based; conditions: Leishmania major; 72 h incubation, MTT absorbance; read-out: absolute EC50 L. major
Procedure: Doxorubicin, suramin and miltefosine were used as control compounds.[ ^6b , ^9 ] After incubation with varied concentrations of the compounds for 72 h, cell viability was measured using either an alamarBlue™ assay (for MRC5, HeLa and T. brucei) or MTT assay (for L. major). Absolute EC50 values and selectivity indexes were then calculated from dose‐response curves (Table 2 and S14).
Invitrogen). L. major promastigotes (MHOM/IL/80/Friedlin) were cultured at 28 °C, 5 % CO2 in modified RPMI-1640 medium (Thermo Fisher Scientific, Waltham, MA, USA) with 10% hiFBS. Parasites were split every other day and maintained in their experimental growth phase (below 2 million parasites per mL). […]
The results are expressed as the concentration of compound that reduces cell growth by 50 % versus untreated control cells (EC50) using GraphPad Prism 7 (GraphPad Software) to fit the data to a sigmoidal curve. Data are presented as the average of three independent measurements all conducted in triplicate conditions. […]
The leishmaniacidal activity of the compounds on promastigotes L. major (MHOM/IL/80/Friedlin) was carried out as previously described.[S14] Briefly, 4 × 10^6 / mL promastigotes were incubated for 72 h at 28 °C in 96-well plates (50 µL/well) in the presence of increasing concentration of compounds. Cell proliferation was determined using an MTT-based assay (Sigma-Aldrich). Thus, after the 72 h incubation, 10 µL of MTT (5 mg/ml) were added to each well and parasites were reincubated for 4 hrs at 28 °C. Then, 50 µL of 20 % SDS were added to each well. The plate was then incubated at 37°C for 4-16 hrs and analysed using an Infinite F200 plate reader (TECAN Austria, GmbH). The absorbance was measured […]
at a wavelength of 540 nm and the EC50 was calculated as described above. Data are presented as the average of three independent measurements, all conducted in triplicate conditions. […]

[3] = tested on: Febr1T (DNA, G4) GGGCAGGGGGTGATGGGGAGGAGCCAGGG; assay: FRET melting; conditions: 10 mM K+, 90 mM Li+; 10 mM Li cacodylate; 5 µM ligand, 200 nM DNA
[4] = 5 μM ligand, 10 mM KCl, 90 mM LiCl, 10 mM Li cacodylate

Row | SMILES | EC50 (MRC5 non-tumoral cells; Homo sapiens, MRC5, 72 h) [µM] | ΔTm Febr1T-K+ ([1]; 1 µM ligand) [°C] | ΔTm Febr1T-K+ [1, 4] [°C] | ΔTm Febr1T-K+ ([1]; 10 µM ligand) [°C] | Ka [2] | EC50 (L. major) [µM] | ΔTm [3] [°C] | EC50 (MRC5 non-tumoral cells) [µM]
1 | CN1CCN(CCCN2C(=O)c3ccc4c5c(ccc(c35)C2=O)C(=O)N(CCCN2CCN(C)CC2)C4=O)CC1 [Compound 1] | 3.9 ± 0.5 | 7 ± 3 | 9±1 | 11 ± 3 | 6×10^6 | 0.47 ± 0.07 | 9±1 | –
2 | CN1CCN(CCCN2C(=O)c3ccc4c5ccc6c7c(ccc(c8ccc(c3c48)C2=O)c75)C(=O)N(CCCN2CCN(C)CC2)C6=O)CC1 [Compound 3] | 2 | 2 ± 1 | 33±1 | 39 ± 1 | 2×10^6 | > 100 | – | 2.1 ± 0.6
3 | CN1CCN(CCCN2C(=O)c3ccc(Oc4ccc(C(C)(C)c5ccc(Oc6ccc7c(c6)C(=O)N(CCCN6CCN(C)CC6)C7=O)cc5)cc4)cc3C2=O)CC1 [Compound 9] | 88 ± 10 | – | −4±1 | -3 ± 1 | – | > 100 | −4±1 | –
4 | CN1CCN(CCCNC(=O)c2ccc(Oc3ccc(C(C)(C)c4ccc(Oc5ccc(C(=O)NCCCN6CCN(C)CC6)c(C(=O)NCCCN6CCN(C)CC6)c5)cc4)cc3)cc2C(=O)NCCCN2CCN(C)CC2)CC1 [Compound 11] | 59 ± 37 | 1 ± 1 | 6±1 | 13 ± 1 | – | 18 ± 1 | 6±1 | –

Reference: paper PMC8251916 (Chemistry (Weinheim an Der Bergstrasse, Germany), 2021)
